Source: patent US11679108B2, “Aromatic heterocyclic compound, and pharmaceutical composition and use thereof” (GUANGZHOU HENOVCOM BIOSCIENCE CO., LTD., priority 2018, dated 2023)

Molecular target: ATX (Homo sapiens, UniProt Q13822)
Experiment: Analysis in vitro: LPC was used as substrate for screening enzyme activity (Amplex Red fluorescence)
Type: biochemical
Details: inhibitory activity against ATX, with LPC as substrate
Description: Analysis In Vitro: LPC was Used as Substrate for Screening Enzyme Activity
Principle: Lysophosphatidylcholine (LPC) as substrate is hydrolyzed by using the activity of lysoPLD enzyme, to produce lysophosphatidic acid (LPA) and choline, which is oxidized to produce H2O2 under the action of choline oxidase. In presence of horse radish peroxidase (HPR), Amplex Red reagent is reacted with H2O2 in a quantitative chemistry ratio of 1 to 1, to produce strong fluorescence products, which are detected by a fluorescent quantitative test.
Experimental procedures: the compounds to be tested were dissolved in DMSO, to prepare 10 mM of stock solution, which was diluted in a gradient concentration of 3 times with DMSO from 10 mM, to generate 10 concentration gradients. The reaction buffer solution was used for preparing a mixed solution 1 of 2 ng/μl ATX, 2 U/ml HRP and 0.2 U/ml choline oxidase in a final concentration. 20 μl of the above mixed solution 1 was added to each hole of an experiment board, […]. The compounds diluted with DMSO were transferred into an experiment board with Echo550. The reaction buffer solution was used for preparing a mixed solution 2 of […] LPC and 400 μM Amplex Red in a final concentration. 20 μl of the above mixed solution 2 was added to each hole of the experiment board. After addition, the experiment board was shook for 30 seconds on a shaker, and incubated for 30 minutes. Envision was used to read the fluorescence signals with an exciting light at 530 nm and emitted light at 590 nm. Inhibition ratio of the compounds to enzyme reaction was calculated according to the ratio of fluorescence, and IC50 of the compounds was analyzed and calculated by software, seeing Table 1.

Q: `CCc1nc2sc(N3CCN(CC(=O)N4CC(O)C4)[C@H](C(=O)OC)C3)nn2c1N(C)c1nc(-c2ccc(F)cc2)c(C#N)s1` [Example 81, methyl (S)-4-{5-[(5-cyano-4-(4-fluorophenyl)thiazol-2-yl)(methyl)amino]-6-ethylimidazo[2,1-b][1,3,4]thiadiazol-2-yl}-1-(2-(3-hydroxyazetidin-1-yl)-2-oxoethyl)piperazine-2-carboxylate] was tested. Which IC50 did it give?
A: The IC50 was 0.01 to 100 nM.

Q: For `CCc1nc2sc(N3CCC(N(C)C(=O)N4CCOCC4)C3)nn2c1N(C)c1nc(-c2ccc(F)cc2)c(C#N)s1` (centres unmarked) [Example 32, N-{1-[5-((5-cyano-4-(4-fluorophenyl)thiazol-2-yl)(methyl)amino)-6-ethylimidazo[2,1-b][1,3,4]thiadiazol-2-yl}pyrrolidin-3-yl}-N-methylmorpholine-4-carboxamide], which IC50 is on record?
A: Its IC50 is 100 to 500 nM.

Q: For `CCc1nc2sc(N3CC[C@@H](N(C)CC(=O)N4CC(F)C4)C3)nn2c1N(C)c1nc(-c2ccc(F)cc2)c(C#N)s1` [Example 39, (R)-2-{[6-ethyl-2-(3-((2-(3-fluoroazetidin-1-yl)-2-oxoethyl)(methyl)amino)pyrrolidin-1-yl)imidazo[2,1-b][1,3,4]thiadiazol-5-yl](methyl)amino}-4-(4-fluorophenyl)thiazole-5-carbonitrile], which IC50 is on record?
A: The IC50 was 100 to 500 nM.

Q: How did the IC50 turn out when `CCc1nc2sc(N3CC[C@@H](N(C)CC(=O)N4CCOCC4)C3)nn2c1N(C)c1nc(-c2ccc(F)cc2)c(C#N)s1` [Example 40, (R)-2-{[6-ethyl-2-(3-(methyl(2-morpholino-2-oxoethyl)amino)pyrrolidin-1-yl)imidazo[2,1-b][1,3,4]thiadiazol-5-yl](methyl)amino}-4-(4-fluorophenyl)thiazole-5-carbonitrile] was run?
A: The IC50 was 100 to 500 nM.

Q: For `CCc1nc2sc(N3CCC(N(C)C(=O)NC4CC4)C3)nn2c1N(C)c1nc(-c2ccc(F)cc2)c(C#N)s1` (centres unmarked) [Example 27, 1-{1-[5-((5-cyano-4-(4-fluorophenyl)thiazol-2-yl)(methyl)amino)-6-ethylimidazo[2,1-b][1,3,4]thiadiazol-2-yl}pyrrolidin-3-yl}-3-cyclopropyl-1-methylurea], which IC50 is on record?
A: The IC50 was 100 to 500 nM.

Q: For `CCc1nc2sc(N3CCCC(N(C)S(C)(=O)=O)C3)nn2c1N(C)c1nc(-c2ccc(F)cc2)c(C#N)s1` (centres unmarked) [Example 13, N-{1-[5-((5-cyano-4-(4-fluorophenyl)thiazol-2-yl)(methyl)amino)-6-ethylimidazo[2,1-b][1,3,4]thiadiazol-2-yl]piperidin-3-yl}-N-methylmethanesulfonamide], which IC50 is on record?
A: Its IC50 is 100 to 500 nM.

Q: With `CCc1nc2sc(N3CCC4(CC3)CN(S(C)(=O)=O)C4)nn2c1N(C)c1nc(-c2ccc(F)cc2)c(C#N)s1` [Example 3, 2-{[6-ethyl-2-(4-(methylsulfonyl)-2,7-diazaspiro[3.5]nonan-7-yl)imidazo[2,1-b][1,3,4]thiadiazol-5-yl](methyl)amino}-4-(4-fluorophenyl)thiazole-5-carbonitrile] as the molecule, how does the IC50 read?
A: The IC50 was 500 to 1000 nM.

Q: Which IC50 does the source give for `CCc1nc2sc(N3CC[C@@H](N(C=O)CC(=O)N4CC(O)C4)C3)nn2c1N(C)c1nc(-c2ccc(F)cc2)c(C#N)s1` [Example 91, (R)—N-{1-[5-((5-cyano-4-(4-fluorophenyl)thiazol-2-yl)(methyl)amino)-6-ethylimidazo[2,1-b][1,3,4]thiadiazol-2-yl]pyrrolidin-3-yl}-N-(2-(3-hydroxyazetidin-1-yl)-2-oxoethyl)formamide] here?
A: The IC50 was 0.01 to 100 nM.

Q: Which IC50 does the source give for `CN(c1nc(-c2ccc(F)cc2)c(C#N)s1)c1c(CCOCc2ccccc2)nc2sc(N3CC[C@@H](N(C)CC(=O)N4CC(O)C4)C3)nn12` [Example 86] here?
A: Its IC50 is no less than 1000 nM.

Q: `CCc1nc2sc(N3CC4(C3)CN(S(C)(=O)=O)C4)nn2c1N(C)c1nc(-c2ccc(F)cc2)c(C#N)s1` [Example 5] was tested. Which IC50 did it give?
A: Its IC50 is 500 to 1000 nM.

Q: With `CCc1nc2sc(N3CCC(N(C)CC(=O)N4CC(C(=O)O)C4)C3)nn2c1N(C)c1nc(-c2ccc(F)cc2)c(C#N)s1` (centres unmarked) [Example 35, 1-{2-[(1-(5-((5-cyano-4-(4-fluorophenyl)thiazol-2-yl)(methyl)amino)-6-ethylimidazo[2,1-b][1,3,4]thiadiazol-2-yl)pyrrolidin-3-yl)(methyl)amino]acetyl}azetidine-3-carboxylic acid] as the molecule, how does the IC50 read?
A: Its IC50 is 0.01 to 100 nM.

Q: For `CCc1nc2sc(C3CCN(S(C)(=O)=O)CC3)nn2c1N(C)c1nc(-c2ccc(F)cc2)c(C#N)s1` [Example 16, 2-{[6-ethyl-2-(1-(methylsulfonyl)piperidin-4-yl)imidazo[2,1-b][1,3,4]thiadiazol-5-yl](methyl)amino}-4-(4-fluorophenyl)-thiazole-5-carbonitrile], which IC50 is on record?
A: The IC50 was no less than 1000 nM.

Molecular target: T1, ATX in human plasma (Homo sapiens, UniProt Q13822)
T1 construct: blank plasma was derived from at least 6 individual people; from tissue; host or cells: human plasma (pooled from at least 6 individuals)
Experiment: Analysis in vitro: detection of LPA in human plasma for screening activity (LPA 18:2 by LC/MS/MS)
Type: biochemical
Details: incubated 2 hours at 37° C., LPA 18:2 detected by LC/MS/MS
Description: Analysis In Vitro: Detection of LPA in Human Plasma for Screening Activity
Principle: LPC in plasma being used as a substrate, the produced LPA 18:2 (LPA 17:0 as an internal standard) is detected by LC/MS/MS quantitative analysis. At different concentrations of the compounds to be tested, the percentage of residual activity is obtained by the ratio of the production of LPA18:2 to that in the absence of the compounds to be tested, thereby calculating IC50 values.
Experiment procedures: blank plasma was derived from at least 6 individual people. The compounds to be tested were diluted from stock solution in 3-fold dilution gradient, to produce 8 concentrations of working solution (with zero) in series. 10 μL of the melting blank plasma samples were taken and iced methanol solution containing internal standard (LPA 17:0) was added to it, so that the mixture directedly performed protein precipitation, which served as a system control sample. 2 μL of the working solution in different concentration was taken and 198 μL of blank human plasma was added, which was incubated with a concentration of 0 to 10 μM. The samples were placed at an incubater containing 5% CO2 at 37° C., and incubated for 2 hours. When the incubation was completed, 10 μL of plasma sample was taken and appropriate volume of iced methanol solution containing internal standard (LPA 17:0) was added into it, so that the mixture directedly performed protein precipitation. The precipitation was centrifuged to take supernatant. LPA 18:2 was detected by LC/MS/MS and IC50 values were analyzed and calculated by software, seeing Table 2.

Q: With `CCc1nc2sc(N3CCN(CC(=O)N4CC(O)C4)C4(CC4)C3)nn2c1N(C)c1nc(-c2ccc(F)cc2)c(C#N)s1` [Example 71, 2-{[6-ethyl-2-(4-(2-(3-hydroxyazetidin-1-yl)-2-oxoethyl)-4,7-diazaspiro[2.5]octan-7-yl)imidazo[2,1-b][1,3,4]thiadiazol-5-yl](methyl)amino}-4-(4-fluorophenyl)thiazole-5-carbonitrile] as the molecule, how does the IC50 read?
A: Its IC50 is 100 to 500 nM.

Q: How did the IC50 turn out when `CCc1nc2sc(N3CCC4(CN(CC(=O)N5CC(O)C5)C4)C3)nn2c1N(C)c1nc(-c2ccc(F)cc2)c(C#N)s1` [Example 54, 2-{[6-ethyl-2-(2-(2-(3-hydroxyazetidin-1-yl)-2-oxoethyl)-2,6-diazaspiro[3.4]octane-6-yl)imidazo[2,1-b][1,3,4]thiadiazol-5-yl](methyl)amino}-4-(4-fluorophenyl)thiazole-5-carbonitrile] was run?
A: Its IC50 is 100 to 500 nM.

Q: How did the IC50 turn out when `CCc1nc2sc(N3C[C@H](C)N(CC(=O)N4CC(O)C4)C[C@@H]3C)nn2c1N(C)c1nc(-c2ccc(F)cc2)c(C#N)s1` [Example 74, 2-{[6-ethyl-2-((2S,5S)-4-(2-(3-hydroxyazetidin-1-yl)-2-oxoethyl)-2,5-dimethylpiperazin-1-yl)imidazo[2,1-b][1,3,4]thiadiazol-5-yl](methyl)amino}-4-(4-fluorophenyl)thiazole-5-carbonitrile] was run?
A: The IC50 was 0.01 to 100 nM.

Q: `CCc1nc2sc(N3CCN(CC(=O)N4CC(O)C4)[C@@H](C)C3)nn2c1N(C)c1nc(-c2ccc(F)cc2)c(C#N)s1` [Example 68, (S)-2-{[6-ethyl-2-(4-(2-(3-hydroxyazetidin-1-yl)-2-oxoethyl)-3-methylpiperazin-1-yl)imidazo[2,1-b][1,3,4]thiadiazol-5-yl](methyl)amino}-4-(4-fluorophenyl)thiazole-5-carbonitrile] was tested. Which IC50 did it give?
A: Its IC50 is 0.01 to 100 nM.

Q: Which IC50 does the source give for `CCc1nc2sc(N3CCC(C(=O)N4CC(O)C4)CC3)nn2c1N(C)c1nc(-c2ccc(F)cc2)c(C#N)s1` [Example 79, 2-{[6-ethyl-2-(4-(3-hydroxyazetidin-1-carbonyl)piperidin-1-yl)imidazo[2,1-b][1,3,4]thiadiazol-5-yl](methyl)amino}-4-(4-fluorophenyl)thiazole-5-carbonitrile] here?
A: The IC50 was 100 to 500 nM.

Q: `CCc1nc2sc(N3CCN(C(N)=O)CC3)nn2c1N(C)c1nc(-c2ccc(F)cc2)c(C#N)s1` [Example 7, 4-{5-[(5-cyano-4-(4-fluorophenyl)thiazol-2-yl)(methyl)amino]-6-ethylimidazo[2,1-b][1,3,4]thiadiazol-2-yl}piperazine-1-carboxamide] was tested. Which IC50 did it give?
A: The IC50 was 500 to 1000 nM.

Q: For `CCc1nc2sc(N3CCC(NC(=O)N4CC(O)C4)C3)nn2c1N(C)c1nc(-c2ccc(F)cc2)c(C#N)s1` (centres unmarked) [Example 64, N-{1-[5-((5-cyano-4-(4-fluorophenyl)thiazol-2-yl)(methyl)amino)-6-ethylimidazo[2,1-b][1,3,4]thiadiazol-2-yl]pyrrolidin-3-yl}-3-hydroxyazadetin-1-carboxamide], which IC50 is on record?
A: The IC50 was 0.01 to 100 nM.

Q: For `CCc1nc2sc(N3CCC(N(C)CC(=O)NCC(=O)O)C3)nn2c1N(C)c1nc(-c2ccc(F)cc2)c(C#N)s1` (centres unmarked) [Example 51], which IC50 is on record?
A: The IC50 was 100 to 500 nM.
